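Tested at 5 concentrations; 48 h exposure; 96-well plates; endpoints linearly interpolated, else capped at highest concentration. GI50 is the concentration that inhibits growth by half.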 The source made the active and inactive calls. Cut-off read from the data, not from the text of the source: active = GI50 up to about 1.1 µM and inactive = higher.
Key:
Assay in all cases: NCI-60 cell line screen, 48 h
OVCAR-4 = system: OVCAR-4
OVCAR-5 = system: OVCAR-5
SK-MEL-28 = system: SK-MEL-28
SK-MEL-5 = system: SK-MEL-5
MDA-N = system: MDA-N
UACC-257 = system: UACC-257
HOP-92 = system: HOP-92
BT-549 = system: BT-549
K562 = system: K562
UO-31 = system: UO-31
HCT-116 = system: HCT-116
MDA-MB-231 = system: MDA-MB-231
SW-620 = system: SW-620
U-251 = system: U-251
NCI-H522 = system: NCI-H522
SF-295 = system: SF-295
SK-MEL-2 = system: SK-MEL-2
EKVX = system: EKVX
MOLT-4 = system: MOLT-4
SF-539 = system: SF-539
RXF 393 = system: RXF 393
HCC 2998 = system: HCC 2998
UACC-62 = system: UACC-62
SF-268 = system: SF-268
SK-OV-3 = system: SK-OV-3
SN12C = system: SN12C
ACHN = system: ACHN
NCI-H460 = system: NCI-H460
PC-3 = system: PC-3
A498 = system: A498
A549 = system: A549
TK-10 = system: TK-10
786-0 = system: 786-0
HL-60 = system: HL-60
T47D = system: T47D
SNB-19 = system: SNB-19
MDA-MB-435 = system: MDA-MB-435
CAKI-1 = system: CAKI-1
CCRF-CEM = system: CCRF-CEM
OVCAR-3 = system: OVCAR-3
HOP-62 = system: HOP-62
KM12 = system: KM12
NCI/ADR-RES = system: NCI/ADR-RES
MCF7 = system: MCF7
NCI-H226 = system: NCI-H226
SNB-75 = system: SNB-75
DU-145 = system: DU-145
OVCAR-8 = system: OVCAR-8
HCT-15 = system: HCT-15
M14 = system: M14
RPMI-8226 = system: RPMI-8226
LOX IMVI = system: LOX IMVI
NCI-H23 = system: NCI-H23
COLO 205 = system: COLO 205
Hs-578T = system: Hs-578T
IGROV-1 = system: IGROV-1
Malme-3M = system: Malme-3M
HT-29 = system: HT-29

Structure (SMILES): CCOC(=O)c1cn(CC)c2ccc3c(c2c1=O)S(=O)(=O)C=C3
- GI50 (OVCAR-4): > 100 µM (inactive)
- GI50 (OVCAR-5): > 100 µM (inactive)
- GI50 (SK-MEL-28): > 100 µM (inactive)
- GI50 (SK-MEL-5): > 100 µM (inactive)
- GI50 (MDA-N): > 100 µM (inactive)
- GI50 (UACC-257): > 100 µM (inactive)
- GI50 (HOP-92): > 100 µM (inactive)
- GI50 (BT-549): > 100 µM (inactive)
- GI50 (K562): > 100 µM (inactive)
- GI50 (UO-31): 60.1 µM (inactive)
- GI50 (HCT-116): > 100 µM (inactive)
- GI50 (MDA-MB-231): > 100 µM (inactive)
- GI50 (SW-620): > 100 µM (inactive)
- GI50 (U-251): > 100 µM (inactive)
- GI50 (NCI-H522): > 100 µM (inactive)
- GI50 (SF-295): > 100 µM (inactive)
- GI50 (SK-MEL-2): 52.5 µM (inactive)
- GI50 (EKVX): > 100 µM (inactive)
- GI50 (MOLT-4): > 100 µM (inactive)
- GI50 (SF-539): > 100 µM (inactive)
- GI50 (RXF 393): 47 µM (inactive)
- GI50 (HCC 2998): > 100 µM (inactive)
- GI50 (UACC-62): > 100 µM (inactive)
- GI50 (SF-268): > 100 µM (inactive)
- GI50 (SK-OV-3): > 100 µM (inactive)
- GI50 (SN12C): > 100 µM (inactive)
- GI50 (ACHN): > 100 µM (inactive)
- GI50 (NCI-H460): > 100 µM (inactive)
- GI50 (PC-3): > 100 µM (inactive)
- GI50 (A498): > 100 µM (inactive)
- GI50 (A549): > 100 µM (inactive)
- GI50 (TK-10): > 100 µM (inactive)
- GI50 (786-0): > 100 µM (inactive)
- GI50 (HL-60): > 100 µM (inactive)
- GI50 (T47D): > 100 µM (inactive)
- GI50 (SNB-19): > 100 µM (inactive)
- GI50 (MDA-MB-435): > 100 µM (inactive)
- GI50 (CAKI-1): > 100 µM (inactive)
- GI50 (CCRF-CEM): > 100 µM (inactive)
- GI50 (OVCAR-3): > 100 µM (inactive)
- GI50 (HOP-62): > 100 µM (inactive)
- GI50 (KM12): > 100 µM (inactive)
- GI50 (NCI/ADR-RES): > 100 µM (inactive)
- GI50 (MCF7): > 100 µM (inactive)
- GI50 (NCI-H226): 63.7 µM (inactive)
- GI50 (SNB-75): > 100 µM (inactive)
- GI50 (DU-145): > 100 µM (inactive)
- GI50 (OVCAR-8): > 100 µM (inactive)
- GI50 (HCT-15): > 100 µM
- GI50 (M14): > 100 µM (inactive)
- GI50 (RPMI-8226): > 100 µM (inactive)
- GI50 (LOX IMVI): > 100 µM (inactive)
- GI50 (NCI-H23): > 100 µM (inactive)
- GI50 (COLO 205): > 100 µM (inactive)
- GI50 (Hs-578T): 52.6 µM (inactive)
- GI50 (IGROV-1): > 100 µM (inactive)
- GI50 (Malme-3M): > 100 µM (inactive)
- GI50 (HT-29): > 100 µM (inactive)

Structure (SMILES): Oc1[nH]c(NCc2ccc(Cl)cc2)nc2ncnc1-2
- GI50 (OVCAR-4): > 100 µM (inactive)
- GI50 (OVCAR-5): > 100 µM (inactive)
- GI50 (SK-MEL-5): > 100 µM (inactive)
- GI50 (MDA-N): > 100 µM (inactive)
- GI50 (UACC-257): > 100 µM (inactive)
- GI50 (HOP-92): > 100 µM (inactive)
- GI50 (BT-549): > 100 µM (inactive)
- GI50 (K562): > 100 µM (inactive)
- GI50 (UO-31): > 100 µM (inactive)
- GI50 (HCT-116): > 100 µM (inactive)
- GI50 (MDA-MB-231): > 100 µM (inactive)
- GI50 (SW-620): > 100 µM (inactive)
- GI50 (U-251): > 100 µM (inactive)
- GI50 (NCI-H522): 30.3 µM (inactive)
- GI50 (SF-295): > 100 µM (inactive)
- GI50 (SK-MEL-2): > 100 µM (inactive)
- GI50 (EKVX): > 100 µM (inactive)
- GI50 (MOLT-4): > 100 µM (inactive)
- GI50 (SF-539): > 100 µM (inactive)
- GI50 (RXF 393): > 100 µM (inactive)
- GI50 (HCC 2998): > 100 µM (inactive)
- GI50 (UACC-62): > 100 µM (inactive)
- GI50 (SF-268): > 100 µM (inactive)
- GI50 (SK-OV-3): > 100 µM (inactive)
- GI50 (SN12C): > 100 µM (inactive)
- GI50 (ACHN): > 100 µM (inactive)
- GI50 (NCI-H460): > 100 µM (inactive)
- GI50 (PC-3): > 100 µM (inactive)
- GI50 (A498): > 100 µM (inactive)
- GI50 (A549): > 100 µM (inactive)
- GI50 (TK-10): > 100 µM (inactive)
- GI50 (786-0): > 100 µM (inactive)
- GI50 (T47D): > 100 µM (inactive)
- GI50 (SNB-19): > 100 µM (inactive)
- GI50 (MDA-MB-435): > 100 µM (inactive)
- GI50 (CAKI-1): > 100 µM (inactive)
- GI50 (CCRF-CEM): > 100 µM (inactive)
- GI50 (OVCAR-3): > 100 µM (inactive)
- GI50 (HOP-62): > 100 µM (inactive)
- GI50 (KM12): > 100 µM (inactive)
- GI50 (NCI/ADR-RES): > 100 µM (inactive)
- GI50 (MCF7): 87.1 µM (inactive)
- GI50 (NCI-H226): > 100 µM (inactive)
- GI50 (SNB-75): > 100 µM (inactive)
- GI50 (DU-145): > 100 µM (inactive)
- GI50 (OVCAR-8): > 100 µM (inactive)
- GI50 (HCT-15): > 100 µM
- GI50 (M14): > 100 µM (inactive)
- GI50 (RPMI-8226): > 100 µM (inactive)
- GI50 (LOX IMVI): > 100 µM (inactive)
- GI50 (NCI-H23): > 100 µM (inactive)
- GI50 (COLO 205): > 100 µM (inactive)
- GI50 (Hs-578T): 44.8 µM (inactive)
- GI50 (IGROV-1): > 100 µM (inactive)
- GI50 (Malme-3M): > 100 µM (inactive)
- GI50 (HT-29): > 100 µM (inactive)
